According to paper PMC4397963, “Phospho-Tyrosine(s) vs. Phosphatidylinositol Binding in Shc Mediated Integrin Signaling” (American journal of molecular biology, 2015):
“Also recorded” adds a separate entry of the source. Values belong to the molecule of their own block, whether it stands above or below them. Where no end group is shown, it is not given here. [ ]: non-standard residue; d: D form. pY = N[C@@H](Cc1ccc(OP(=O)(O)O)cc1)C(=O)O

Legend:
[1] = molecular target: T1, Shc PTB domain (17 – 207) (Homo sapiens, UniProt P29353); test: ITC binding to Shc PTB domain; conditions: for thermodynamic character of binding (heat sign, driving force) / Kd / ΔG / ΔH / −TΔS: ITC, 25°C; for Kd / ΔG / ΔH / −TΔS: PtdIns binding to PTB domain; for Kd: 50 mM Tris pH 7.5, 100 mM NaCl, 5 mM β-mercaptoethanol, "independent" model, dihexanoyl- or dioctonoyl- PtdIns, read-out: Kd; for ΔG / ΔH / −TΔS: pH 7.5
T1 construct: The Shc PTB domain (17 – 207) containing the pET15b vector was transformed into a Rosetta (DE3) cell line; His-tag (N); made in house; host or cells: E. coli Rosetta (DE3), pET15b
T1 sequence (P29353 17-207 isoform P29353-2): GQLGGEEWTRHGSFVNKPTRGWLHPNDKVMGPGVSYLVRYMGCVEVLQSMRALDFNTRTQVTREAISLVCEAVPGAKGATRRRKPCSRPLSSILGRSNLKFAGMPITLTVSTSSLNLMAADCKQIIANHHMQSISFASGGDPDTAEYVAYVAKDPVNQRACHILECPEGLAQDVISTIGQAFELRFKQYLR
Method: The Shc PTB domain (17 – 207) containing the pET15b vector was transformed into a Rosetta (DE3) cell line to pursue optimal expression levels. SH2 domain (380 – 473) was cloned into NdeI and XhoI sites in pET21b vector and then transformed into a BL21 (DE3) cell line. The vector of pET28a-full length Shc (1 – 473), generously provided by Dr. Ladbury (University of Texas MD Anderson Cancer Center, TX), was expressed in a BL21 (DE3) cell line as well. Typically, 10 ml overnight culture was used to inoculate 1 liter LB broth. Cells were grown at 37°C until OD600 reached 0.6. At this point the culture was cooled to room temperature and then the overnight overexpression was induced by 1 mM isopropyl-β-D-thiogalactopyranoside. Harvested cells were kept at −20°C for future purification or resuspended in lysis buffer supplemented with protease inhibitors. Cells were further lysed by french press and the cell debris was removed by centrifugation at 18,000 rpm at 4°C. […] The overexpression of the target protein and the purified protein were confirmed by SDS-PAGE and the bands of the expected mass were observed. The determination of protein concentration by UV measurement was consistent with Bradford assay.
Calorimetric measurements of a full length Shc, PTB domain, and SH2 domain to β3 phosphopeptides or PtdIns were performed on a low volume Nano ITC (TA Instruments). All experiments were carried out in a buffer of 50 mM Tris, pH 7.5, 100 mM NaCl, 5 mM β-mercaptoethanol (unless described otherwise) at 12°C or 25°C with a stirring speed of 250 rpm to minimize the precipitation of the protein. 300 second time intervals were set between injections. The concentration of protein samples was determined by UV measurements. The titrants (β3 phosphopeptides or PtdIns) were prepared in the same buffer by the dilution of higher concentration stocks. The concentrations of the protein ranged from 30 μM to 150 μM. The concentration of protein was examined after each ITC experiment by UV to ensure the stability of proteins under the test condition. The analysis of the data was done with Nano Analyze Software (TA Instruments) suite using an “independent” model.

apo Shc PTB domain = test: 15N-HSQC NMR titration of apo Shc PTB domain; format: binding; conditions: 15N-labelled apo PTB 100 – 200 μM, 50 mM Tris pH 7.5, 100 mM NaCl, 35°C; lipid to protein up to 15 to 1 (Ins(1,4,5)P3), 5 to 1 (PtdIns(4,5)P2)
Method: ^15N-labelled recombinant proteins were overexpressed in M9 medium supplemented with ^15NH4Cl as the sole nitrogen source. The same purification procedures as described above were followed. NMR samples of 100 – 200 μM were prepared in a buffer of 50 mM Tris, pH 7.5, 100 mM NaCl, 5 mM β-mercaptoethanol, 7% D2O, 1 mM 4,4-dimethyl-4-silapentane-1-sulfonic acid as the internal standard. ^15N-HSQC titration experiments were performed on a Varian/Agilent Inova 600 MHz spectrometer equipped with inverse-triple resonance cryo-probe at 35°C. All spectra were processed with NMRPipe and analyzed in CCPNmr Analysis software suite.
To find out the molecular details of these weak Shc-PtdIns interactions, we next employed NMR and performed ^15N-HSQC chemical shifts mapping experiments which are especially useful to define weak binding. […] Chemical shift perturbations, associated with the probes binding, were monitored. Overall, the observed shifts in Shc PTB resonance frequencies were small. However, they were concentration dependent, reproducible, and similar among the two PtdIns tested. […] The close-ups of 15N-HSQC spectra of PTB in the presence of PtdIns(4,5)P2, exemplifying the most shifted resonances, are shown in Figure 2. […] The first one, represented by the residues Q^148, S^149 and A^168, overlaps with the classical phosphotyrosine binding pocket of the protein-peptide binary complex. However, the canonical PTB fold cannot be formed without the stabilizing hydrophobic residue (pY-5) of the target peptide. Thus, in apo PTB domain Ins(1,4,5)P3 could only establish intermediate dynamic contacts with the amine functional groups of R^67 or Q^148 side chains. The second binding site, including the residues L^63, Q^76 and S^107, is formed at the interface of the second helix, the loop connecting the first beta strand with the second helix and the beginning of the second beta strand. This second PtdIns binding site is distinct from the second novel phosphotyrosine binding site we previously described for Shc PTB-bi-β3 complex, although it includes several overlapping residues. […]

apo PTB domain of Shc = conditions: unilamellar liposomes centrifugation assay; ref [15]; read-out: binding affinity, apo PTB domain; cited from earlier work
[2] = molecular target: PTB domain complexed with TrkA peptide; conditions: roughly estimated; ref [15]; cited from earlier work
Shc PTB domain = conditions: ref [15]; cited from earlier work
Description: Since their discovery about two decades ago, PTB domains have been identified and structurally characterized within numerous multi-domain proteins. The ways they interact with their targets are strikingly versatile. The phosphorylated tyrosine is not always required for the high affinity interactions, and, in some cases, the binding motif might not even contain the tyrosine residue at all. PTB domains in general are also famous for the significant variance in their ligand binding affinities, ranging from 0.1 to 100 μM [17].

[3] = molecular target: TrkA phosphopeptide (Homo sapiens) (UniProt P04629); test: SPR; conditions: cited from earlier work
TrkA phosphopeptide (Homo sapiens), sequence (P04629 33-796): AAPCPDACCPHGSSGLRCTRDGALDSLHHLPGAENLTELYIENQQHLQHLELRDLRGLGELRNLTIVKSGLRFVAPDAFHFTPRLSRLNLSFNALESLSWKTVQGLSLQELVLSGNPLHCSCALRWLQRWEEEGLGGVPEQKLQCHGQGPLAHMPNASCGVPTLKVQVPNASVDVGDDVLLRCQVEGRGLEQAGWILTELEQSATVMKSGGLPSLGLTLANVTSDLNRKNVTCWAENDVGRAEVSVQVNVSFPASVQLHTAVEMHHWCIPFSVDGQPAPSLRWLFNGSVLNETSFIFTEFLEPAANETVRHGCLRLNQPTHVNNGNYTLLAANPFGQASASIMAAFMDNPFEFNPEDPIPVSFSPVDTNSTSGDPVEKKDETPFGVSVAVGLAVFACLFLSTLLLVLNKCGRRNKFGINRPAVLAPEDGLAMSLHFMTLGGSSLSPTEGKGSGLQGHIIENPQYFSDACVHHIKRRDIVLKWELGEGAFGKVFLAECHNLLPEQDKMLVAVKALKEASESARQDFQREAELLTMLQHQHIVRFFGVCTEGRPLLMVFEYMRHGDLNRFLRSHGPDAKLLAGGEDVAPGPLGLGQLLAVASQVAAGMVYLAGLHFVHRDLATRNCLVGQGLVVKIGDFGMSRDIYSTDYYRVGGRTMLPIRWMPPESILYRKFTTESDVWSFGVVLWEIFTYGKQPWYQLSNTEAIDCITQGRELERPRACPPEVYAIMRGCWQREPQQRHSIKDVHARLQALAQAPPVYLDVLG

[4] = molecular target: TrkA phosphopeptide (Homo sapiens) (UniProt P04629); test: ITC; conditions: cited from earlier work
[5] = molecular target: T2, Shc PTB domain (17 – 207) (UniProt P29353-2 17-207); test: ITC; Nano ITC; β3 phosphopeptide titrated into the Shc protein over-saturated by Ins(1,4,5)P3 at 3 to 1 lipid to protein ratio; 12°C; conditions: both partners purified
T2 construct: Shc adaptor protein (p52 isoform), PTB domain, residues 17-207, from a pET15b vector; numbers count on: the p52 isoform (full length 1-473); 15N-labelled (M9 medium with 15NH4Cl) for the NMR experiments; Monomeric on Superdex-75; also called apo PTB domain; source: E. coli Rosetta (DE3), purified (Ni-NTA, Superdex-75)
T2 sequence (looked up): T1 sequence (P29353 17-207 isoform P29353-2)

[6] = molecular target: T3, full length Shc (1 – 473) (UniProt P29353-2 1-473); test: as above; conditions: both partners purified
T3 construct: Shc adaptor protein, full length 1-473 (printed length 473 residues, the p52 isoform), from a pET28a vector provided by Dr. Ladbury; numbers count on: the p52 isoform; Monomeric on Superdex-75; also called Shc full length; p52 Shc; source: E. coli BL21 (DE3), purified (Ni-NTA, Superdex-75)
T3 sequence (looked up): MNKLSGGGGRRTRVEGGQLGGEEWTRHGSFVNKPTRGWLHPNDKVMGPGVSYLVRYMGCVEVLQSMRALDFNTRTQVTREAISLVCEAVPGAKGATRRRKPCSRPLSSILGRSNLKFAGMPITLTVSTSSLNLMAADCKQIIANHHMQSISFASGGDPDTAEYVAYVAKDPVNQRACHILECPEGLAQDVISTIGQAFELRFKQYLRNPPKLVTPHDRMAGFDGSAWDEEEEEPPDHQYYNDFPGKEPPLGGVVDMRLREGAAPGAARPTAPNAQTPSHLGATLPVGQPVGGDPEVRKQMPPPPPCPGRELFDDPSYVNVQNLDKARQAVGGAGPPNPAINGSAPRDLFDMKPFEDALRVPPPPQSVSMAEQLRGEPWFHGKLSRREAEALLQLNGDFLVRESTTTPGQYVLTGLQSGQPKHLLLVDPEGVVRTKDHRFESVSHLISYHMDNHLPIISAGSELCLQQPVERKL

[7] = molecular target: T2, Shc PTB domain (17 – 207); test: ITC; Nano ITC; β3 phosphopeptide titrated into the Shc protein (30-150 μM); 12°C; 50 mM Tris, pH 7.5, 100 mM NaCl, 5 mM β-mercaptoethanol; independent model; conditions: both partners purified
[8] = molecular target: T2, Shc PTB domain (17 – 207); test: ITC; Nano ITC; β3 phosphopeptide titrated into the Shc protein (30-150 μM); 25°C; 50 mM Tris, pH 7.5, 100 mM NaCl, 5 mM β-mercaptoethanol; independent model; conditions: both partners purified
[9] = molecular target: T3, full length Shc (1 – 473); test: as above; conditions: both partners purified
[10] = molecular target: T2, Shc PTB domain (17 – 207); test: ITC; Nano ITC; β3 phosphopeptide titrated into the Shc protein (30-150 μM); 12°C; 50 mM Tris, pH 7.5, 100 mM NaCl, 5 mM β-mercaptoethanol; independent model; conditions: both partners purified; remark: listed apart in the source
[11] = molecular target: T3, full length Shc (1 – 473); test: as above; conditions: both partners purified
[12] = molecular target: T2, Shc PTB domain (17 – 207); test: ITC; Nano ITC; β3 phosphopeptide titrated into the Shc protein (30-150 μM); 25°C; 50 mM Tris, pH 7.5, 100 mM NaCl, 5 mM β-mercaptoethanol; independent model; conditions: both partners purified; remark: listed apart in the source
[13] = molecular target: T3, full length Shc (1 – 473); test: as above; conditions: both partners purified; remark: listed apart in the source

Kd [1]: 125 µM
ΔG [1]: -5.323 kcal/mol
ΔH [1]: 0.464 kcal/mol
−TΔS [1]: -5.786 kcal/mol
Molecule: CCCCCCCCCCCCCCCC(=O)OC[C@H](COP(=O)(O)O[C@H]1[C@H](O)[C@@H](O)[C@H](OP(=O)(O)O)[C@@H](OP(=O)(O)O)[C@H]1O)OC(=O)CCCCCCCCCCCCCCC [PtdIns(4,5)P2, Phosphatidylinositol-4,5-diphosphate]
thermodynamic character of binding (heat sign, driving force) ([1]; PTB domain): endothermic interactions at 25 °C that are driven predominantly by entropy
15N-HSQC chemical shift perturbations (apo Shc PTB domain): small; also recorded: more pronounced; also recorded: three major binding regions
Kd (apo PTB domain of Shc): 140 µM
Kd [2]: ~450 µM
lipid specificity (Shc PTB domain): higher specificities

binding affinity relative to that reported before ([1]; PTB domain, ITC 25°C vs. centrifugation assay of ref 15): about two times weaker
Kd [1]: 95 µM
ΔG [1]: -5.485 kcal/mol
ΔH [1]: 0.361 kcal/mol
−TΔS [1]: -5.846 kcal/mol
Molecule: Phosphatidylinositol-4-phosphate [PtdIns(4)P1]
thermodynamic character of binding (heat sign, driving force) ([1]; PTB domain): endothermic interactions at 25 °C that are driven predominantly by entropy
15N-HSQC chemical shift perturbations (apo Shc PTB domain): small
Kd (apo PTB domain of Shc): 52 µM
Kd [2]: ~450 µM
lipid specificity (Shc PTB domain): higher specificities

Continued, molecule first:

Molecule: Shc PTB (from UniProt P29353)
Kd [3]: 0.053 µM
Kd [4]: 0.19 µM

B1: bi-β3: β3 integrin derived bi-phosphorylated (Y747 and Y759) peptide (peptide)
peptide: RAKWDTANNPL[pY]KEATSTFTNIT[pY]RGT
notes: integrin β3 cytoplasmic tail, residues 736-762, both tyrosines phosphorylated; also called bi-phosphorylated β3 cytoplasmic tail peptide; source: synthetic peptide (NEO-Peptide)
Kd [5]: 3.65 µM
dH [5]: -2.96 kcal/mol
Kd [6]: 4.38 µM
dH [6]: -3.32 kcal/mol
stoichiometry N [7]: 1 ± 0.15
stoichiometry N [8]: ~1
stoichiometry N [9]: 1 ± 0.15
Kd [10]: 4.32 µM
dH [10]: -2.75 kcal/mol
Kd [11]: 5.21 µM
dH [11]: -3.89 kcal/mol
Kd [12]: 5.14 µM
dH [12]: -5.49 kcal/mol
Kd [13]: 2.84 µM
dH [13]: -6.89 kcal/mol
